Laboratory results reported in patent US10323019B2, “Pyrazolylaminobenzimidazole derivatives as JAK inhibitors” (Eli Lilly and Company, priority 2016, dated 2019).

Test system: paw swelling in Lewis rats
Experiment: Rat collagen-induced arthritis (CIA) model
Format: in vivo
Protocol: Rat Collagen-Induced Arthritis (CIA) Model
This protocol uses Lewis rats (weight 150-175 grams) from Charles River. On day 0, anesthetize rats with Isoflurane. On day 1, immunize intradermally with collagen emulsion in two sites on the lower lumbar region, above the base of the tail. Dose volume is a minimum of 0.4 mL per injection site. On day 8, anesthetize rats with Isoflurane and immunize intradermally with collagen emulsion in two sites on the lower lumbar region, above the base of the tail. Enroll rats into treatment groups on day 12, based on inflammation (redness and/or swelling) in their hind paws. Randomize animals for Treatment Phase based on ankle measurement values and body weight using block randomization allocation tool. Record ankle swelling on days 1, 8, and 11 and then three times per week following enrollment up to and including the day of necropsy. Dose compounds orally once a day starting on day 12 (after randomization) up to day 25. The compounds of Examples 6 and 7 were evaluated in the protocol essentially as described above.

## COc1cc(Nc2cc(O[C@H]3CC[C@@H](NC[C@@H](O)C(F)(F)F)CC3)cc3c2ncn3C)nn1C [Example 6, (2R)-1,1,1-Trifluoro-3-{[cis-4-({4-[(5-methoxy-1-methyl-1H-pyrazol-3-yl)amino]-1-methyl-1H-benzimidazol-6-yl}oxy)cyclohexyl]amino}propan-2-ol]
3 mpk oral once a day day 12 to 25, naïve rat as 100% inhibition
  Rat paw swelling % inhibition at 3 mpk: 12%
10 mpk oral once a day day 12 to 25, naïve rat as 100% inhibition
  Rat paw swelling % inhibition at 10 mpk: 47%
30 mpk oral once a day day 12 to 25, naïve rat as 100% inhibition
  Rat paw swelling % inhibition at 30 mpk: 79%
